Like-named read-outs stand apart in the source and are kept apart here.
Key:
[1] = Animal parameters (food, body weight, liver weight/body weight, mortality) in rats; format: in vivo; settings: 4 days; for food / lw/bw / body wt.: % of control, diet 0.3%, N = 5; for food: grams eaten per day per rat; for lw/bw: liver weight/body weight; for lw/bw / body wt. / mortality: rat; for body wt.: weight in grams; for mortality: male, Sprague-Dawley, in vivo
Source text: (§1) A typical experiment consists of 4-6 groups of rats (N = 5 per group) with I group being a control which receives no MDL compound and the other groups being treated with 0.3% MDL compound. Some of the compounds are either repeated at 0.3% or evaluated again at the lower dose of 0.1%. House Male Sprague-Dawley rats, 50-100 g, (Harlan Laboratories, Indianapolis, IN) in groups of 5, feeding ad libitum water and Purina Rodent chow (#5002) with or without MDL compound as a dietary admixture for 4 days. Make dietary admixtures (0.3%) by mixing 1.2 grams of an MDL compound with 400 grams of Purina rodent chow (#5002). Mix the MDL compound with approximately 50 grams of food using a mortar and pestle. This is added to the remainder of the food and mixed for 3 hours on a rotary mixer. In the morning of day 5, anesthetize non-fasted rats with carbon dioxide, and collect blood by cardiac puncture. Sacrifice rats by cervical dislocation. Record body weights and liver weights in grams. Record food consumption as grams • day^-1 • rat^-1. Deaths are recorded as mortality. Use aliquots of fresh serum for clinical chemistries, thiobarbituric acid reactive substances (TBARS) and conjugated diene measurements. Freeze aliquots of serum (∼ 0.5mL) and whole livers at -20°C for compound and metabolite concentration determination at a later time.

[2] = tested on: oxidation of lipids; assay: Conjugated diene lag phase determination on pooled serum of treated rats; format: in vivo, Male Sprague-Dawley rats; settings: not normalized, mean of 2 determinations of pooled rat serum (N = 5), diet 0.3%, 4 days
Source text: as §1
Conjugated diene lag phase is another indicator of the oxidation of lipids. Lipids exposed to Cu^++ form conjugated dienes that absorb ultraviolet light in the range of 230 to 235 nm. The lag phase of diene formation gives an indication of the amount of oxidation of the lipids. A lag phase longer than control samples indicate inhibition of the oxidation. Determine conjugated diene lay phase using a Varian DMS200 spectrophotometer (fitted with a constant temperature, 5 cuvette sample changer) at 30°C. Add twenty (20) µL of pooled serum to cuvettes containing 3.0mL phosphate buffered saline, pH 7.5, and mix. Measure the absorbances of all cuvettes and set the instrument baseline to zero using the lowest absorbing sample. Next, add 100µL of 1 mmol CuSO4 and mix immediately. Record the absorbance of each cuvette at 2 min intervals for a period of 840 min. Capture the data and transfer to a Microsoft EXCEL® spreadsheet where the curves are smoothed and differentials obtained. Determine lag times mathematically as minutes. Pool serum samples (N = 5); data presented are the mean values of 2 determinations. Compare serum samples from treated rats to serum samples from control rats that received no MDL compound.

[3] = tested on: oxidation of serum lipids; assay: TBARS assay on serum of treated rats (CuSO4-initiated oxidation); format: in vivo, Male Sprague-Dawley rats; settings: % of control; thiobarbituric acid reactive substances as nmoles MDA, rat serum; diet 0.3%, 4 days; N = 5
Source text: as §1
In this assay the oxidation of serum lipids is initiated with CuSO4, resulting in the formation of aldehydes, such as malondialdehyde (MDA). Upon incubation with thiobarbituric acid, the absorbance of the aldehydes can be detected at 530-540 nm. As stated in the previous example, TBARS values which are lower than control serum values indicate the relative ability of a test compound to inhibit the oxidation of lipids in a sample. Measure TBARS as follows: mix 100µL of serum with 400µL of a 5mmol CuSO4 solution and incubate at 37°C for 3 hr. Stop the reactions by addition of 1.0mL of 20% trichloroacetic acid. Then add 1.0mL of 0.67% thiobarbituric acid in 0.05 N sodium hydroxide, mix, and incubate the samples for 30 min at 90°C. Centrifuge samples briefly to pellet undissolved material, and transfer the supernatants to a 96-well microtiter plate. Measure absorbances at 540 nm using a Biotek model EL311 microplate reader. The nmoles of MDA produced are calculated from a standard curve of 0 to 10 nmoles of MDA prepared from malonaldehyde bis(dimethylacetal). Serum samples from treated rats are compared to serum samples from control rats that received no MDL compound.

[4] = HPLC quantitation of compound and metabolite concentration in rat serum and liver; format: in vivo; settings: male, Sprague-Dawley, oral, 0.3 % in chow, diet 0.3%, 4 days, mean N = 5
Source text: as §1
Determine serum and liver concentrations of parent compound and the metabolites, bisphenol and diphenoquinone, by reverse phase HPLC using a Waters 990 Powerline system. Homegenize livers (1 gram samples) with 5.0mL PBS, pH 7.4, using a Polytron tissue homogenizer at setting 5 for 20-30 seconds. Extract serum or liver homogenates as follows: add 100µL of either serum or homogenate to 2.0mL diethyl ether: ethanol (3:1) while vortexing the tube. Cap the sample tubes and centrifuge for 10 min at 5°C at 3500 rpm in a Beckman GPKR centrifuge with a GH 3.7 rotor. Transfer the supernatants to clean tubes and dry under N2. Reconstitute samples with 200µL of acetonitrile : hexane : 0.1 M ammonium acetate (90: 6.5 : 3.5, by vol.). Then, inject 100µL onto a Waters Deltapak C18-300 Å column, and elute with an 83% acetonitrile : 17% water mobile phase at a flow rate of 1.5mL/min. Record absorbances at the wavelengths of 240, 254, and 420nm. Calculate compound concentrations from known quantities of authentic parent compounds after correction for recovery. […]. Calculate concentrations as µg/mL of serum and µg/g of liver.

[5] = tested on: Male Sprague-Dawley Rats; assay: Serum clinical chemistries in rats fed compound as dietary admixture; format: in vivo; settings: % of control, diet 0.3%, 4 days, N = 5; for ALT: alanine aminotransferase in rat serum; for ALP: alkaline phosphatase in rat serum; for AST: aspartate aminotransferase in rat serum; for GLUC: glucose in rat serum; for response vs control in vivo at 0.3 % in diet: feed or water, 96 h
Source text: as §1
Allow blood to clot at room temperature for 30 minutes. Obtain serum after centrifugation for 10 min at 4°C at 3000 rpm in a Beckman J-6M/E centrifuge with a JS-4.2 rotor. Analyze fresh serum by a COBAS MIRA S autoanalyzer (Roche Diagnostics) using Roche diagnostic reagents for the following clinical chemistry measurements: alkaline phosphatase (ALP, kit # 44553), alanine transaminase (ALT, kit # 42375), aspartate aminotransferase (AST, kit # 42381), total cholesterol (CHOL, kit # 44334), triglyceride (TG, kit # 44120), and glucose (GLU, kit # 44558). Calculate ALP, ALT, and AST as units/L. Calculate cholesterol, triglycerides, and glucose as mg/dL.

[6] = parent compound concentration in rat liver, read-out: Liver Parent
[7] = parent compound concentration in rat serum, read-out: Serum Parent
[8] = total cholesterol in rat serum, read-out: CHOL
[9] = triglycerides in rat serum, read-out: TRIG

| SMILES | food [1] [%] | lw/bw [1] [%] | body wt. [1] [%] | mortality [1] [%] | CONJ. DIENE [2] [min] | TBARS [3] [%] | concentration at 5 day [4, 6] [ng/g] | concentration at 5 day [4, 7] [µg/mL] | ALT [5] [%] | ALP [5] [%] | AST [5] [%] | GLUC [5] [%] | response vs control in vivo at 0.3 % in diet [5, 8] [%] | response vs control in vivo at 0.3 % in diet [5, 9] [%] |
| --- | --- | --- | --- | --- | --- | --- | --- | --- | --- | --- | --- | --- | --- | --- |
| CC(C)=CCC[C@H](C)CCOc1ccc(O)c(C(C)(C)C)c1 (stereo in doubt) [MDL 103,649, Phenol, 2-(1,1-dimethylethyl)-4-[(3,7-dimethyl-6-octenyl)oxy]-, (S)-] | 95 | 111 | 94 | 0 | 375 | 29 | 0 | 1.4 | 119 | 74 | 82 | 101 | 89 | 143 |
| CC(C)=CCC[C@H](C)CCSc1ccc(O)c(C(C)(C)C)c1 [MDL 103,714, Phenol, 2-(1,1-dimethylethyl)-4-[(3,7-dimethyl-6-octenyl)thio]-, (S)-] | 102 | 121 | 103 | 0 | – | 21 | 0 | 2.7 | 120 | 111 | 104 | 95 | 90 | 122 |
| CC(C)CCCC(C)CCOc1cc(C(C)(C)C)c(O)c(C(C)(C)C)c1 (stereo not shown) [MDL 104,102, Phenol, 2,6-bis(1,1-dimethylethyl)-4-[(3,7-dimethyloctyl)oxy]-] | 92 | 121 | 97 | 0 | 229 | 71 | 481000 | 32.8 | 114 | 101 | 82 | 98 | 100 | 127 |
| CC(CCCC(C)(C)O)CCSc1cc(C(C)(C)C)c(O)c(C(C)(C)C)c1 (stereo not shown) [MDL 104,487, Phenol, 2,6-bis(1,1-dimethylethyl)-4-[(7-hydroxy-3,7-dimethyloctyl)thio]-] | 90 | 150 | 95 | 0 | – | 87 | 3800 | 4.1 | 129 | 137 | 124 | 92 | 127 | 108 |
| CC(C)=CCCC(C)CCOc1ccc(O)c(C(C)(C)C)c1 (stereo not shown) [MDL 105,411, Phenol, 2-(1,1-dimethylethyl)-4-[(3,7-dimethyl-6-octenyl)oxy]-] | 95 | 114 | 101 | 0 | 400 | 29 | 0 | 1.1 | 122 | 76 | 87 | 96 | 105 | 100 |
| CC(C)=CCC[C@H](C)CCOc1cc(C(C)(C)C)c(O)cc1C(C)(C)C [MDL 107,059, Phenol, 2,5-bis(1,1-dimethylethyl)-4-[(3,7-dimethyl-6-octenyl)oxy]-, (S)-] | 95 | 107 | 95 | 0 | 201 | 78 | 0 | 0 | 116 | 118 | 140 | 96 | 89 | 35 |

Reference: patent EP0942896B1, “SUBSTITUTED PHENOLS AND THIOPHENOLS USEFUL AS ANTIOXIDANT AGENTS” (Aventis Pharmaceuticals Inc., priority 1996, dated 1998)
